Assay results from ChEMBL document CHEMBL1201862, “PubChem BioAssay data set” (2004).
The source made the active and inactive calls.

How the values were obtained:
[1] = target: Alkaline phosphatase, placental type (Homo sapiens, UniProt P05187); test: human placental alkaline phosphatase inhibition – biochemical, luminescence, confirmation (AID 1512); format: functional
[2] = target: Dual specificity tyrosine-phosphorylation-regulated kinase 1A (Rattus norvegicus, UniProt Q63470); format: biochemical, Homo sapiens
[3] = target: T1, Microphthalmia-associated transcription factor (Homo sapiens, UniProt O75030); test: reducers of TRPM1 reporter luminescence, concentration series – cell-based, SK-MEL-5, cherry-picked, set 3, MITF inhibitor project, dose response (AID 493073); format: functional;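 note: SK-MEL-5 melanoma cells with luciferase driven by the MITF target TRPM1 promoter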
T1 sequence (O75030 whole entry): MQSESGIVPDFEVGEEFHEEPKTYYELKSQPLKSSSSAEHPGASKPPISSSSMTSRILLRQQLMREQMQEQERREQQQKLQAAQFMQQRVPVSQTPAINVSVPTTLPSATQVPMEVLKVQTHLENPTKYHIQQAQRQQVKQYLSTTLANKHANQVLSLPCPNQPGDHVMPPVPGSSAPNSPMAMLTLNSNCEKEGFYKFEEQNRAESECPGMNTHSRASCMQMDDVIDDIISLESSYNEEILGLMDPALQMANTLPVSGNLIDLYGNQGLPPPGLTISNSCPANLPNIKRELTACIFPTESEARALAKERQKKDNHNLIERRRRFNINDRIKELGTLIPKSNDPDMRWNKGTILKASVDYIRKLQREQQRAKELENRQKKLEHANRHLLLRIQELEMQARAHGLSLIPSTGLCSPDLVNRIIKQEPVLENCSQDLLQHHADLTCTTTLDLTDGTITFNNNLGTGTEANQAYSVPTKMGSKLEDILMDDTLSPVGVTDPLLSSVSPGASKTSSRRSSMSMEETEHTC

[4] = target: T2, Nucleotide-binding oligomerization domain-containing protein 1 (Homo sapiens, UniProt Q9Y239); test: blockers of NOD1 pathway activity – revised, SAR follow-up (AID 2333); format: functional
T2 sequence (Q9Y239 whole entry): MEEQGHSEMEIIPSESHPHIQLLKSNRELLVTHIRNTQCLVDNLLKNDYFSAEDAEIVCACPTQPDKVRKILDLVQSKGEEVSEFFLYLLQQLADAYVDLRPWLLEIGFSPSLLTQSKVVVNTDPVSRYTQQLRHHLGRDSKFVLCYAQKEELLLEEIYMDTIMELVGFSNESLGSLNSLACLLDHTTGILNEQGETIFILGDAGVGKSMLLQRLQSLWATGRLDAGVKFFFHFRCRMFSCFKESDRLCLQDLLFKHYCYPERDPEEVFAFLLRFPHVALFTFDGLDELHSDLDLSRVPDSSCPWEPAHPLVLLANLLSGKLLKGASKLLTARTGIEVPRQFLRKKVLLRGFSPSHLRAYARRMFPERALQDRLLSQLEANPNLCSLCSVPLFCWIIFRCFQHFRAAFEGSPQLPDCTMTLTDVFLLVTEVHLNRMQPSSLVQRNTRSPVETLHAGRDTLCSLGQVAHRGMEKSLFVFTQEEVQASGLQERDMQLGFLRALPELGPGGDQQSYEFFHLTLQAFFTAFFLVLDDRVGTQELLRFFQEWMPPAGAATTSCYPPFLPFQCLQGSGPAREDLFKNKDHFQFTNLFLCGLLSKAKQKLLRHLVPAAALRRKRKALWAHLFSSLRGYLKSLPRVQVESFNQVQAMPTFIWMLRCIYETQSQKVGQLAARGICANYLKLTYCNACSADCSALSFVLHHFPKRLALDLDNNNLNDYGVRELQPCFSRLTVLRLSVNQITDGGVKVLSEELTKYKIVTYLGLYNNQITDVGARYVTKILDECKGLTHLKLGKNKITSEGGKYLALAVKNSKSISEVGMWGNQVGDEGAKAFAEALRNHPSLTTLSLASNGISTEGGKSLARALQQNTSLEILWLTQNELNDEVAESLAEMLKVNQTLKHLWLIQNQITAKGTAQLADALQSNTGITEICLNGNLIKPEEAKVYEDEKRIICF

HEK293 [5] = test: cells; format: functional, cell-based; conditions: Homo sapiens
Tumor necrosis factor = Tumor necrosis factor (Homo sapiens, UniProt P01375); test: analog potency on TNFa NF-kB signaling – cell-based, revised, SAR follow-up (AID 2337); format: functional
Sequence of Tumor necrosis factor (P01375 whole entry): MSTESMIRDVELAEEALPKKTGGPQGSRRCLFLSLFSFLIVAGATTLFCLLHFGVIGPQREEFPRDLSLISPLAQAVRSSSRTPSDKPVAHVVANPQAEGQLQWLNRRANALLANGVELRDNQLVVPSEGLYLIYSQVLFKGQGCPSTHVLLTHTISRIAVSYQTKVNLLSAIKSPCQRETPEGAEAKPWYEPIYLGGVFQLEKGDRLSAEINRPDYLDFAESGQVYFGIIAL

HEK293 [6] = test: inhibition of NOD1-driven NF-kB reporter – cell-based, luminescence, uHTS, primary screen (AID 1578); format: functional; conditions: Homo sapiens
HEK293 [7] = test: NOD2 signaling inhibitors in MDP-stimulated cells, cell-based, uHTS, luminescence (AID 2001); format: functional; conditions: Homo sapiens
HEK293 [8] = test: cells; conditions: Homo sapiens
HEK293 [9] = test: cells; format: functional, cell-based; conditions: Homo sapiens; remark: listed apart in the source
[10] = HEK-293T viability loss after treatment – luminescence, T-cell screen hits, cytotoxicity control for TCR NF-kB inhibitor project, dose response (AID 489026); format: functional, cell-based;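 note: cells exposed to compound about 14 hours before the viability readout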
HEK293 [11] = test: cells; format: functional, cell-based; conditions: Homo sapiens; remark: listed apart in the source
[12] = target: Nucleotide-binding oligomerization domain-containing protein 2 (Homo sapiens, UniProt Q9HC29); test: inhibition of NOD2-driven NF-kB reporter – cell-based, luminescence, uHTS, HEK293 (AID 1566); format: functional
Sequence of Nucleotide-binding oligomerization domain-containing protein 2 (Q9HC29 whole entry, the tested form may be a part): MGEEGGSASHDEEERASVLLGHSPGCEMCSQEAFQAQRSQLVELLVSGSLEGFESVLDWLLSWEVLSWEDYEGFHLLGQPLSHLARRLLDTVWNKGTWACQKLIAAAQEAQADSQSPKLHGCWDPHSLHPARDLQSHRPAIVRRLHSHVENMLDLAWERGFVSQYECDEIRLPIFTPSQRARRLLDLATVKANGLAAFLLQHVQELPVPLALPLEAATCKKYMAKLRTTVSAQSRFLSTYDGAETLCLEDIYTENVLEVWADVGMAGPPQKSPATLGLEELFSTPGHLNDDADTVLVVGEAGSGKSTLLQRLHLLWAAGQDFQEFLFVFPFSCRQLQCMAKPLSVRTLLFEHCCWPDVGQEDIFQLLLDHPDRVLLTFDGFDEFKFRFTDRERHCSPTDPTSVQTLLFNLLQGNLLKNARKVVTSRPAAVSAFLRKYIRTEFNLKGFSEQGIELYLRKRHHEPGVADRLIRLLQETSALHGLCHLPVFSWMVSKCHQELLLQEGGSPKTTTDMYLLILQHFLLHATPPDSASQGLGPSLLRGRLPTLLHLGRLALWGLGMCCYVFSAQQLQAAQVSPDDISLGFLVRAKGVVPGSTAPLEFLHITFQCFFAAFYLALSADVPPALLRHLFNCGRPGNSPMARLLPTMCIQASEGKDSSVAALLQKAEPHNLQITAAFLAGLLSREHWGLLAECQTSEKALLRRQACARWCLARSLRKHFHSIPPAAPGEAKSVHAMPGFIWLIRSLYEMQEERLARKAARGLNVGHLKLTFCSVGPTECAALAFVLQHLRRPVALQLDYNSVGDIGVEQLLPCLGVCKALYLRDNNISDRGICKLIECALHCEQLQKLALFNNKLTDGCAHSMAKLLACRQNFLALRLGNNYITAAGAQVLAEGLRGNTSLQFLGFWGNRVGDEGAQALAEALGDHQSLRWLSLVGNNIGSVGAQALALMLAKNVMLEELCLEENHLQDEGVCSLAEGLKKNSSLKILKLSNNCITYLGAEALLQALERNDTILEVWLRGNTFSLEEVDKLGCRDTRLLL

[13] = target: T3, Type-1 angiotensin II receptor (Homo sapiens, UniProt P30556); test: antagonism of angiotensin II type 1 receptor – cell-based, uHTS hits, selectivity assay for APJ receptor antagonist project, dose response (AID 463214); format: functional;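 note: antagonist potency against angiotensin II stimulated AT1 response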
T3 sequence (P30556 whole entry): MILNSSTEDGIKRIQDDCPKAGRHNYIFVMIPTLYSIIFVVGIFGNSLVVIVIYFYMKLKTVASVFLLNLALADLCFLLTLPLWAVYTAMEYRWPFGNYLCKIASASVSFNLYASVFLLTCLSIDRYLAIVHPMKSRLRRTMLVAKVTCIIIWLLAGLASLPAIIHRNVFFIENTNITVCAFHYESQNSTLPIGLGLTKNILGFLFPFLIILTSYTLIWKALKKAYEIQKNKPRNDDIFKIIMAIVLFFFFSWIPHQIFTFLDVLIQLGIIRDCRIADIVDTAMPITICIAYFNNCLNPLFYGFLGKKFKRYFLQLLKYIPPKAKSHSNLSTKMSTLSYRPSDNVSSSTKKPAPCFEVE

Beta-galactosidase = Beta-galactosidase (Escherichia coli, UniProt Q8VNN2); test: PubChem AID 485352; format: functional
Sequence of Beta-galactosidase (Q8VNN2 whole entry): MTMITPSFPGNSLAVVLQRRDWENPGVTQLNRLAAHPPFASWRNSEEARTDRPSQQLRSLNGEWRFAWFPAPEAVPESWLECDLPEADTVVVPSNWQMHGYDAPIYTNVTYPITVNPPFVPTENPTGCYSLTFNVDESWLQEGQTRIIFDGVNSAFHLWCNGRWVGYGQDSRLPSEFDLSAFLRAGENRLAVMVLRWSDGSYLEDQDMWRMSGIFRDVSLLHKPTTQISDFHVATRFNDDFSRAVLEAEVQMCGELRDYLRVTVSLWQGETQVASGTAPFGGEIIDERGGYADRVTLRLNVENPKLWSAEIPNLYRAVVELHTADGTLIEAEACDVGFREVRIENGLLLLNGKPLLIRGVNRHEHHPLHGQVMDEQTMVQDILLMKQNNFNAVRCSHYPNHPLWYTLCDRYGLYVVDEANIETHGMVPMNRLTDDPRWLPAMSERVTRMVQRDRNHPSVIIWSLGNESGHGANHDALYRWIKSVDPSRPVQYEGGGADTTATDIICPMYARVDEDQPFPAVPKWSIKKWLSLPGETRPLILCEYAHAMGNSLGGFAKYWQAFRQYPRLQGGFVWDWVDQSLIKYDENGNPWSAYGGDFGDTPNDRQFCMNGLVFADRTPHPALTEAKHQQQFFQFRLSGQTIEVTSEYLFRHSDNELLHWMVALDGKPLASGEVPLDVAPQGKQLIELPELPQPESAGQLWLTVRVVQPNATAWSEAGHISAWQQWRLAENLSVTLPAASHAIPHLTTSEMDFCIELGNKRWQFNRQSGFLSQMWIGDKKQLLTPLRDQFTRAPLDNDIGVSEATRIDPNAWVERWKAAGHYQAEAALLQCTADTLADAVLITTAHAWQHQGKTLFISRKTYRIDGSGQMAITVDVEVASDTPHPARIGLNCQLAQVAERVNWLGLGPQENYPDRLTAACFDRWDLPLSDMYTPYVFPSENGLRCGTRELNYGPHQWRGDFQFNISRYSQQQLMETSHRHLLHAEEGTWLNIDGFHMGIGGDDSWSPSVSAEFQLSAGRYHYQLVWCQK

Sequence of Alkaline phosphatase, placental type (P05187 whole entry): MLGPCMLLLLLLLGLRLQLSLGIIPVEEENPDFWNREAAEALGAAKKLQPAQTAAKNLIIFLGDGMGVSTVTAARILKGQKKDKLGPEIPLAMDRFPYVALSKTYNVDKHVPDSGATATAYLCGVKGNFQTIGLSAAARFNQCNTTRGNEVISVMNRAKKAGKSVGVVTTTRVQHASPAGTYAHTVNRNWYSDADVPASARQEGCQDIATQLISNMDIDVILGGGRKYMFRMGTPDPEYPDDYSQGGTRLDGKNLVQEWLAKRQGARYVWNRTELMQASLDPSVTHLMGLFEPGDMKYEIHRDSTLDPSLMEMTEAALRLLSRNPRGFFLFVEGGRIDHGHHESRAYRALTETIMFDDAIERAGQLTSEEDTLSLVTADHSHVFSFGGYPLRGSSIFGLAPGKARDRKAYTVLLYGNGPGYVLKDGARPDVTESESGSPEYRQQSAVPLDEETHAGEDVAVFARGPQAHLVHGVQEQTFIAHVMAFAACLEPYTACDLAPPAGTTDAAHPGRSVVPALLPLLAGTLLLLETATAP

SMILES: CCc1ccc2nc(Nc3nc(COC)cc(=O)[nH]3)nc(C)c2c1
- IC50 [1]: > 100 µM (inactive)

SMILES: CCOC(=O)CSC1=NC(=O)/C(=C/c2ccc(OC)cc2)S1
- AC50 [2]: 0.395 µM (active)
- AC50 [3]: 3.98 µM (active)

SMILES: Cc1ccc(C(=O)N2CCN(c3ccc(F)cc3)CC2)cc1S(=O)(=O)N1CCCCC1
- IC50 [4]: 5.07 µM (active)
- IC50 (HEK293 [5]): > 20 µM (inactive)
- IC50 (Tumor necrosis factor): 9.82 µM (active)
- EC50 (HEK293 [6]): 5.48 µM (active)
- IC50 (HEK293 [7]): 12.9 µM (inactive)
- IC50 (HEK293 [8]): > 20 µM (inactive)
- IC50 (HEK293 [9]): 11.2 µM (active)

SMILES: Cc1csc2ncnc(NC3CCN(Cc4ccccc4)CC3)c12
- IC50 [10]: > 80 µM (inactive)
- IC50 (HEK293 [5]): > 20 µM (inactive)
- IC50 (HEK293 [11]): > 20 µM (inactive)
- EC50 (HEK293 [6]): 1.92 µM (active)
- EC50 [12]: 7.78 µM (active)
- IC50 (HEK293 [7]): 2.36 µM (active)
- IC50 (HEK293 [9]): 1.61 µM (active)

SMILES: CC1(C)CC2(CC(c3ccccc3F)c3cc(Cl)c(O)cc3O2)NC(=S)N1 (stereo not given)
- IC50 [13]: > 40 µM (not active)
- EC50 (Beta-galactosidase): > 40 µM (inactive)

SMILES: COc1ccc(O)c(-c2[nH]ncc2C(=O)c2ccccc2)c1
- IC50 (HEK293 [5]): > 20 µM (inactive)
- IC50 (HEK293 [11]): > 20 µM (inactive)
- EC50 (HEK293 [6]): 15 µM (active)
- EC50 [12]: 14.3 µM (active)
- IC50 (HEK293 [7]): 14 µM (inactive)
- IC50 (HEK293 [9]): 9.31 µM (active)
